The values that follow come from PMC5700102, “Primer synthesis by a eukaryotic-like archaeal primase is independent of its Fe-S cluster” (Nature Communications, 2017).

Structures are written as SMILES.

This test concerns the target T1, PriSLX (Saccharolobus solfataricus, UniProt Q97Z83+Q97ZS7).
T1 construct: gene priS; heterotrimer co-expressed in E. coli Rosetta2(DE3) from pETDuet PriL/PriS and pRSFDuet PriX; no tag mentioned; PriL 307 and PriX 154 residues; with DNA primase large subunit PriL
T1 sequence (Q97Z83 1-330): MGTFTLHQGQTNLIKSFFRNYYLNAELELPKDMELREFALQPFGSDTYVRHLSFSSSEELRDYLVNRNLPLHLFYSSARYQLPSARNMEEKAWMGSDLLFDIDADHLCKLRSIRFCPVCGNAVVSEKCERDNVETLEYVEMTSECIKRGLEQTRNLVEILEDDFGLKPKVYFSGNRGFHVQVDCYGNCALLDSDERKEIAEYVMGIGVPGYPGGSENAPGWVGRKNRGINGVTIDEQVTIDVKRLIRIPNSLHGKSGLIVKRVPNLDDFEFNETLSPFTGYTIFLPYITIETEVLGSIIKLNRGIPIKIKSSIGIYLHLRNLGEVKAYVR
T1 sequence (Q97ZS7 1-154): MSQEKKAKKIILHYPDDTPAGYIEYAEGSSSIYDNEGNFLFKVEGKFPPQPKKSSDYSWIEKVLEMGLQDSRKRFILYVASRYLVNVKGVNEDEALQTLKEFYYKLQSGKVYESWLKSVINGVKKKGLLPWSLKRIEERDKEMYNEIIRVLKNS
T1 sequence (Q9UWW1 1-307 partner): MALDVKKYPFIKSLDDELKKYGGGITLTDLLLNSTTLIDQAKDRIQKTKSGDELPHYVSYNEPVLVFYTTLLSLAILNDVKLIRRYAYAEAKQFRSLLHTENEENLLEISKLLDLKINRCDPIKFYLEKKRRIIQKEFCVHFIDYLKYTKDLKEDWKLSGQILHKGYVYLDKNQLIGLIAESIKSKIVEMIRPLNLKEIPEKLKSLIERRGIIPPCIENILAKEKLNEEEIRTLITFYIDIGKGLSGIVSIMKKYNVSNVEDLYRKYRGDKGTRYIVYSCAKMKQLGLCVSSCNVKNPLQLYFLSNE
Description: X-ray crystal structure, […] Å. In kind it is binding. Particulars: two molecules bound: PriS active site (elongation site) and PriX initiation site at the PriX-PriS interface; MnCl2.

Consider `Nc1ncnc2c1ncn2[C@@H]1O[C@H](COP(=O)(O)CP(=O)(O)OP(=O)(O)O)[C@@H](O)[C@H]1O` [AMPCPP], for which the “X-ray crystal structure, 2.9 Å” value is on record as “The first AMPCPP was bound in the active site of PriS”.
